Ki and melting point data for 28 compounds are collected here from patent publication US7326729B2, “CXCR1 and CXCR2 chemokine antagonists” (Schering Corporation, priority 2004, dated 2008).

“And” between values parts separate entries of the source, which are not always exact repeats. Equal entries are not always repeated.

In one data set the target is T1, hCXCR2 (Homo sapiens, UniProt P25025).
T1 construct: purchased Biosignal; host or cells: CHO cells (membranes)
T1 sequence (P25025 1-360): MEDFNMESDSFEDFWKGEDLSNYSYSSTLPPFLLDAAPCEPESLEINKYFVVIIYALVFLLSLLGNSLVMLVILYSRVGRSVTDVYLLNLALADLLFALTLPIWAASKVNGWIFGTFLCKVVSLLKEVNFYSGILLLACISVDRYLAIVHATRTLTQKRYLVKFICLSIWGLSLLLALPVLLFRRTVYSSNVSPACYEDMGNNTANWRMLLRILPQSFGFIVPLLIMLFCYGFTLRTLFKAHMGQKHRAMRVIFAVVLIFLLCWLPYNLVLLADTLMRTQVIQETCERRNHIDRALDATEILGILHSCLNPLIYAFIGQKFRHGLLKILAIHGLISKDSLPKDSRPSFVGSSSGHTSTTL
Briefly: CXCR2 SPA Assay ([125I]-IL-8 receptor binding). Conditions: hCXCR2-CHO overexpressing membranes, [125I]-IL-8 0.1 nM. The method, then:
For each well of a 96 well plate, a reaction mixture of 2.5 μg hCXCR2-CHO overexpressing membranes (Biosignal) and 200 μg/well WGA-SPA beads (Amersham) in 160 μl was prepared in CXCR2 assay buffer (25 mM HEPES, pH 7.4, 2 mM CaCl2, 1 mM MgCl2). A 1 nM stock of ligand, [125I]-IL-8 (NEN), was prepared in the CXCR2 assay buffer. 10× stock solutions of test compounds were prepared in DMSO (Sigma). The above solutions were added to a 96-well assay plate (PerkinElmer or Corning) as follows: 20 μl test compound or DMSO, 160 μl of reaction mixture, 20 μl of ligand stock (Final [Ligand]=0.1 nM). The assay plates were shaken for 5 minutes on a plate shaker, then incubated for 12 hours before cpm/well were determined in Microbeta Trilux counter (PerkinElmer).

A further data set deals with T2, hCXCR1 (Homo sapiens, UniProt P25024).
T2 construct: purchased Biosignal; host or cells: CHO cells (membranes)
T2 sequence (P25024 1-350): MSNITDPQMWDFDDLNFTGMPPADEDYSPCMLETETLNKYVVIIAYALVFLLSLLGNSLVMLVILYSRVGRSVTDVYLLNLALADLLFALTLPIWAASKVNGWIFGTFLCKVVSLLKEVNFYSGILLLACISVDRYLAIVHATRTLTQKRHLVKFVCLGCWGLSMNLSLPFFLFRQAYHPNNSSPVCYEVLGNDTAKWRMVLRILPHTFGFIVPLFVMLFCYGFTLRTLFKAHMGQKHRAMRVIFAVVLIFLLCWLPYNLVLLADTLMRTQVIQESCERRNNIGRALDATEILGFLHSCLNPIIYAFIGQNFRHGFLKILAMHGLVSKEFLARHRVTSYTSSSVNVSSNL
Briefly: CXCR1 SPA Assay ([125I]-IL-8 receptor binding). Conditions: hCXCR1-CHO overexpressing membranes, [125I]-IL-8 0.05 nM. The method, then:
For each well of a 96 well plate, a reaction mixture of 2.2 μg hCXCR1-CHO overexpressing membranes (Biosignal) and 100 μg/well WGA-SPA beads (Amersham) in 160 μl was prepared in CXCR1 assay buffer (25 mM HEPES, pH 7.8, 2 mM CaCl2, 1 mM MgCl2, 125 mM NaCl, 0.1% BSA) (Sigma). A 0.5 nM stock of ligand, [125I]-IL-8 (NEN) was prepared in the CXCR1 assay buffer. 10× stock solutions of test compounds were prepared in 10% DMSO (Sigma). The above solutions were added to a 96-well assay plate (PerkinElmer) as follows: 20 μl test compound or DMSO, 160 μl of reaction mixture, 20 μl of ligand stock (Final [Ligand]=0.05 nM). The assay plates were shaken for 5 minutes on plate shaker, then incubated for 12 hours before cpm/well were determined in Microbeta Trilux counter (PerkinElmer). % Inhibition of Total binding-NSB (250 nM IL-8) was determined for IC50 values.

Compound `CN(C)S(=O)(=O)c1scc(NC(=O)Nc2ccccc2Br)c1O` [Example 20.1] returned an inhibition constant Ki at hCXCR2 of 5 to 91 nM. On to `CCN(CC)S(=O)(=O)c1scc(NC(=O)Nc2cccc(Cl)c2Cl)c1O` [Example 20.3], for which the Ki was 5 to 91 nM at hCXCR2 and 652 to 1920 nM at hCXCR1. As to `CCNS(=O)(=O)c1scc(NC(=O)Nc2cccc(Cl)c2Cl)c1O` [Example 20.7], the Ki on hCXCR2 fell in the range of 5 to 91 nM. On the same count and under the same terms, as for `CCNS(=O)(=O)c1scc(NC(=O)Nc2ccccc2Br)c1O` [Example 20.10], the figure is 5 to 91 nM.

The compound `CC(C)NS(=O)(=O)c1scc(NC(=O)Nc2cccc(Cl)c2Cl)c1O` [Example 20.11] showed a Ki at hCXCR1 of 652 to 1920 nM. As to `CC(C)NS(=O)(=O)c1scc(NC(=O)Nc2ccccc2Br)c1O` [Example 20.12], the Ki on hCXCR2 was 5 to 91 nM. Consider `CC(C)(C)NS(=O)(=O)c1scc(NC(=O)Nc2cccc(Cl)c2Cl)c1O` [Example 20.13], for which, on hCXCR1, the Ki was in the range of 652 to 1920 nM. Same read-out and setting: as for `CN(C(C)(C)C)S(=O)(=O)c1scc(NC(=O)Nc2cccc(Cl)c2Cl)c1O` [Example 20.14], the figure is 652 to 1920 nM and 652 nM. Take `CCN(C(C)(C)C)S(=O)(=O)c1scc(NC(=O)Nc2cccc(Cl)c2Cl)c1O` [Example 20.15]: the inhibition constant Ki lay within 5 to 91 nM at hCXCR2 and 652 to 1920 nM at hCXCR1. Regarding `CN(C1CC1)S(=O)(=O)c1scc(NC(=O)Nc2cccc(Cl)c2Cl)c1O` [Example 20.16], the inhibition constant (Ki) was 5 to 91 nM and 5 to 10 nM and 6 nM at hCXCR2; 652 to 1920 nM at hCXCR1. For the compound `CN(C1CCC1)S(=O)(=O)c1scc(NC(=O)Nc2cccc(Cl)c2Cl)c1O` [Example 20.17], the Ki on hCXCR2 fell in the range of 5 to 91 nM. As to `O=C(Nc1csc(S(=O)(=O)N2CCCC2)c1O)Nc1cccc(Cl)c1Cl` [Example 20.18], the values for the Ki at hCXCR2 and on hCXCR1 were 5 to 91 nM and 652 to 1920 nM, respectively.

For `O=C(Nc1ccccc1Br)Nc1csc(S(=O)(=O)N2CCCC2)c1O` [Example 20.19], the Ki on hCXCR2 is 5 to 91 nM; at hCXCR1, 652 to 1920 nM. Turning to `NS(=O)(=O)c1scc(NC(=O)Nc2cccc(Cl)c2Cl)c1O` [Example 20.21], the Ki on hCXCR2 fell in the range of 5 to 91 nM. Same read-out and setting: as for `CN(C)S(=O)(=O)c1scc(NC(=O)Nc2cccc(Cl)c2Cl)c1O` [Example 20], the figure is 5 to 91 nM. Still for that read-out and setting: in the case of `CCCN(C)S(=O)(=O)c1scc(NC(=O)Nc2cccc(Cl)c2Cl)c1O` [Example 21.1] it was 5 to 91 nM and 5 to 10 nM; in that of `CCCCN(C)S(=O)(=O)c1scc(NC(=O)Nc2cccc(Cl)c2Cl)c1O` [Example 21.2], 5 to 91 nM. The same measure, in the same setting: in the case of `CC(C)CN(C)S(=O)(=O)c1scc(NC(=O)Nc2cccc(Cl)c2Cl)c1O` [Example 21.3] it was 5 to 91 nM; in that of `CC(C)N(C)S(=O)(=O)c1scc(NC(=O)Nc2cccc(Cl)c2Cl)c1O` [Example 21.4], 5 to 91 nM and 5 to 10 nM. For the compound `CCN1CCN(S(=O)(=O)c2scc(NC(=O)Nc3cccc(Cl)c3Cl)c2O)CC1` [Example 21.5], the Ki at hCXCR2 lay within 5 to 91 nM; at hCXCR1, 652 to 1920 nM.

On to `O=C(Nc1csc(S(=O)(=O)N2CCC[C@@H]2CO)c1O)Nc1cccc(Cl)c1Cl` [Example 21.6], for which the Ki is 5 to 91 nM and 5 to 10 nM on hCXCR2; 652 to 1920 nM on hCXCR1. As for `O=C(Nc1csc(S(=O)(=O)N2CCC[C@H]2CO)c1O)Nc1cccc(Cl)c1Cl` [Example 21.7], the Ki is 5 to 91 nM and 5 to 10 nM on hCXCR2; 652 to 1920 nM on hCXCR1. As for `O=C(Nc1csc(S(=O)(=O)NC2(CO)CCCC2)c1O)Nc1cccc(Cl)c1Cl` [Example 21.8], the Ki at hCXCR2 is 5 to 91 nM. `O=C(Nc1csc(S(=O)(=O)NC2CC2)c1O)Nc1cccc(Cl)c1Cl` [Example 21.10]: the Ki lay within 5 to 91 nM on hCXCR2 and 652 to 1920 nM on hCXCR1. As to `CC(C)[C@@H](CO)NS(=O)(=O)c1scc(NC(=O)Nc2cccc(Cl)c2Cl)c1O` [Example 21.12], the Ki on hCXCR2 lay within 5 to 91 nM.

Turning to `CNS(=O)(=O)c1scc(NC(=O)Nc2cccc(Cl)c2Cl)c1O` [Example 21.14], the Ki on hCXCR2 is 5 to 91 nM and 5 to 10 nM; on hCXCR1 it was 652 to 1920 nM. At hCXCR2, `CCN(C)S(=O)(=O)c1scc(NC(=O)Nc2cccc(Cl)c2Cl)c1O` [Example 21] registered a Ki of 5 to 91 nM. `CCN(C)S(=O)(=O)c1scc(NC(=S)Nc2cccc(Cl)c2Cl)c1O` [Example 22] registered a melting point of 112 to 115 °C. Moreover, on hCXCR2, the Ki lay in the range of 5 to 91 nM.
